In patent publication US11724992B2 (Novartis AG, priority 2017, dated 2023):
pIC50: −log10 of the molar value. Where two headings read alike, the source gives them in different places.

Test system: IL-1β production in PMA-differentiated THP-1 cells
Assay: IL-1β production in PMA-differentiated THP-1 cells stimulated with gramicidin (hTHP-1 assay, 2% fetal bovine serum; Procedures 1-3)
Assay type: cell-based, human
Conditions: class symbols, read-out: hTHP-1 IC50 (Average IC50 of compounds in hTHP-1 assay)
How it was run: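 PMA-differentiated (20 ng/ml, 16-18 h) THP-1 cells in RPMI with 2% FBS, 50,000 cells/well, preincubated 1 h with compound (final 100–0.0017 μM, 0.37% DMSO), then stimulated with 5 μM gramicidin for 2 h. Supernatant IL-1β measured by HTRF.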

[1] = Homo sapiens, THP-1, hTHP-1 assay containing 2% fetal bovine serum
[2] = hTHP-1 assay containing 2% fetal bovine serum

| Structure (SMILES) | pIC50 [1] | pIC50 [2] |
| --- | --- | --- |
| CC(C)(O)c1ncc(S(N)(=O)=NC(=O)Nc2c3c(cc4c2CC4)CCC3)s1 (stereo not drawn) [Example 223, 2-(2-Hydroxypropan-2-yl)-N′-((2,4,5,6-tetrahydro-1H-cyclobuta[f]inden-3-yl)carbamoyl)thiazole-5-sulfonimidamide] | 7.40 to 8.10 |  |
| CNS(=O)(=NC(=O)Nc1c2c(cc3c1CCC3)CCC2)c1cnc(C(C)(C)O)s1 (stereo not drawn) [Example 247, N′-((1,2,3,5,6,7-hexahydro-s-indacen-4-yl)carbamoyl)-2-(2-hydroxypropan-2-yl)-N-methylthiazole-5-sulfonimidamide] | 4.52 to 5.30 |  |
| CN(C(=O)N=S(N)(=O)c1cnc(C(C)(C)O)s1)c1c2c(cc3c1CCC3)CCC2 (stereo not drawn) [Example 248, N′-((1,2,3,5,6,7-hexahydro-s-indacen-4-yl)(methyl)carbamoyl)-2-(2-hydroxypropan-2-yl)thiazole-5-sulfonimidamide] | 4.52 to 5.30 |  |
| CC(C)(O)c1cnc(S(N)(=O)=NC(=O)Nc2c3c(cc4c2OCC4)CCC3)s1 (stereo not drawn) [Example 258, 5-(2-Hydroxypropan-2-yl)-N′-((3,5,6,7-tetrahydro-2H-indeno[5,6-b]furan-8-yl)carbamoyl)thiazole-2-sulfonimidamide] | 6.70 to 7.40 |  |
| CC(C)(O)c1csc(S(N)(=O)=NC(=O)Nc2c3c(cc4c2OCC4)CCC3)n1 (stereo not drawn) [Example 263, 4-(2-Hydroxypropan-2-yl)-N′-((3,5,6,7-tetrahydro-2H-indeno[5,6-b]furan-8-yl)carbamoyl)thiazole-2-sulfonimidamide] | 7.40 to 8.10 |  |
| CC(c1ccc(S(N)(=O)=NC(=O)Nc2c3c(cc4c2CCC4)CCC3)cc1)N(C)C (stereo not drawn) [Example 266, 4-(1-(Dimethylamino)ethyl)-N′-(1,2,3,5,6,7-hexahydro-s-indacen-4-ylcarbamoyl)benzenesulfonimidamide] |  | 6.70 to 7.40 |
| CN(C)C(C)(C)c1ccc(S(N)(=O)=NC(=O)Nc2c3c(cc4c2CCC4)CCC3)cc1 (stereo not drawn) [Example 267, 4-(2-(Dimethylamino)propan-2-yl)-N′-(1,2,3,5,6,7-hexahydro-s-indacen-4-ylcarbamoyl)benzenesulfonimidamide] | 6.70 to 7.40 |  |
| CC(C)(O)c1cc(F)c(S(N)(=O)=NC(=O)Nc2c3c(cc4c2CCC4)CCC3)s1 (stereo not drawn) [Example 269, 3-Fluoro-N′-(1,2,3,5,6,7-hexahydro-s-indacen-4-ylcarbamoyl)-5-(2-hydroxypropan-2-yl)thiophene-2-sulfonimidamide] | 7.40 to 8.10 |  |
| COC(C)(C)c1ccc(S(N)(=O)=NC(=O)Nc2c3c(cc4c2CCC4)CCC3)cc1 (stereo not drawn) [Example 274, N′-(1,2,3,5,6,7-hexahydro-s-indacen-4-ylcarbamoyl)-4-(2-methoxypropan-2-yl)benzenesulfonimidamide] | 6.00 to 6.70 |  |
| CN(C)Cc1ccc(S(N)(=O)=NC(=O)Nc2c3c(cc4c2CCC4)CCC3)nc1 (stereo not drawn) [Example 278, 5-((Dimethylamino)methyl)-N′-(1,2,3,5,6,7-hexahydro-s-indacen-4-ylcarbamoyl)pyridine-2-sulfonimidamide] | 6.00 to 6.70 |  |
| CN(C)Cc1cc(F)c(S(N)(=O)=NC(=O)Nc2c3c(cc4c2CCC4)CCC3)s1 (stereo not drawn) [Example 279, 5-((Dimethylamino)methyl)-3-fluoro-N′-(1,2,3,5,6,7-hexahydro-s-indacen-4-ylcarbamoyl)thiophene-2-sulfonimidamide] | 7.40 to 8.10 |  |
| CN1CCCC1c1ccc(S(=N)(=O)NC(=O)Nc2c3c(cc4c2CCC4)CCC3)cc1 (stereo not drawn) [Example 283, N-((1,2,3,5,6,7-hexahydro-s-indacen-4-yl)carbamoyl)-4-(1-methylpyrrolidin-2-yl)benzenesulfonimidamide] |  | 6.00 to 6.70 |
| CC(C)(O)c1ncc(S(N)(=O)=NC(=O)Nc2cc3c(c4c2CCC4)CCC3)s1 (stereo not drawn) [Example 285, N′-((1,2,3,6,7,8-hexahydro-as-indacen-4-yl)carbamoyl)-2-(2-hydroxypropan-2-yl)thiazole-5-sulfonimidamide] | 6.70 to 7.40 |  |
| CC(C)(O)c1ncc(S(N)(=O)=NC(=O)Nc2c3c(cc4c2OCC4)CCC3)s1 (stereo not drawn) [Example 289, 2-(2-Hydroxypropan-2-yl)-N′-((3,5,6,7-tetrahydro-2H-indeno[5,6-b]furan-8-yl)carbamoyl)thiazole-5-sulfonimidamide] | 6.70 to 7.40 |  |
| CC1CCc2c1cc1c(c2NC(=O)N=S(N)(=O)c2cnc(C(C)(C)O)s2)CCC1 (stereo not drawn) [Example 291, 2-(2-Hydroxypropan-2-yl)-N′-((1-methyl-1,2,3,5,6,7-hexahydro-s-indacen-4-yl)carbamoyl)thiazole-5-sulfonimidamide] |  | 6.70 to 7.40 |
| CC1CCc2cc3c(c(NC(=O)N=S(N)(=O)c4cnc(C(C)(C)O)s4)c21)CCC3 (stereo not drawn) [Example 292, 2-(2-Hydroxypropan-2-yl)-N′-((3-methyl-1,2,3,5,6,7-hexahydro-s-indacen-4-yl)carbamoyl)thiazole-5-sulfonimidamide] |  | 6.70 to 7.40 |
| COC(C)(C)c1ncc(S(N)(=O)=NC(=O)Nc2c3c(cc4c2CCC4)CCC3)s1 (stereo not drawn) [Example 295, N′-((1,2,3,5,6,7-hexahydro-s-indacen-4-yl)carbamoyl)-2-(2-methoxypropan-2-yl)thiazole-5-sulfonimidamide] | 6.70 to 7.40 |  |
